How the values were obtained:
Format in all cases: cell-based
c-Rel [1] = molecular target: T1, c-Rel (Mus musculus, UniProt P15307); assay: BD TransFactor assay of c-Rel DNA-binding activity in nuclear extracts of RAW 264.7 cells; details: LPS/IFNγ, 1000 nM, 30 min pre-treatment, 3 hrs
T1 construct: nuclear extracts from RAW cells stimulated with LPS/IFNγ; endogenous in cells; host or cells: RAW264.7
Procedure: In this study, we examined the effect of Compound 50 on the DNA-binding activity of nuclear c-Rel. The BD transfactor assay (a non-radioactive version of a super-shift assay) was used to measure the DNA-binding activity of c-Rel. In this assay, nuclear extracts are added to biotinylated double-stranded oligonucleotides containing the NF-κB binding site bound to a streptavidin 96-well plate. Detection of the transcription factor-DNA complex is performed with a specific primary antibody for c-Rel. The 96-well format allows for simultaneous measurement of multiple conditions and proteins using HRP-conjugated secondary antibodies whose enzymatic product can be measured using a luminometer. The level of c-Rel DNA-binding activity increased 40-fold (relative to DMSO control) in nuclear extracts from RAW cells stimulated with LPS/IFNγ.
Methods: 20×10^6 Raw 264.7 cells were treated with either DMSO, LPS/IFNγ, or LPS/IFNγ/Compound 50. (LPS conc. 1 ug/ml f.c.; mouse IFNγ mouse 100 U/ml f.c, Compound 501 uM f.c). (LPS: Sigma Cat # L2654. Mouse IFNγ; Cat # R+D 485-MICF). […]
After measurement of protein concentration using BioRad assay, the nuclear extract was used in a Chemiluminescent NF-κB TransFactor Kit (BD) according to the user manual. […] Finally, amount of bound antibody to the plate was detected by incubation with chemiluminescent substrate and subsequent detection with a luminometer. […]

c-Rel [2] = molecular target: T1, c-Rel; assay: Immunoblot and densitometry of nuclear c-Rel in LPS/IFNγ-stimulated Raw264.7 cells; details: Raw264.7, LPS/IFNγ, immunoblot densitometry
Procedure: Methods: 20×10^6 Raw 264.7 cells were treated with either DMSO, LPS/IFNγ, or LPS/IFNγ/Compound 50. (LPS conc. 1 ug/ml f.c.; mouse IFNγ mouse 100 U/ml f.c, Compound 501 uM f.c). (LPS: Sigma Cat # L2654. Mouse IFNγ; Cat # R+D 485-MICF). Cells were pre-treated with Compound 50 for 30 min, then LPS/IFNγ was added. After 3 hrs, nuclear and cytoplasmic extracts were prepared according to the BD™ TransFactor Extraction Kit and user manual. Briefly, cells were washed in PBS, harvested and lysed in hypotonic lysis buffer on ice. Cells were then disrupted by drawing the cell suspension through a No. 27 gauge needle 10 times. Next, the cell suspension was centrifuged, and the cytoplasmic extract (supernatant) was collected. The nuclear pellet was then disrupted by resuspension in high salt extraction buffer and was drawn through the needle 10 times. […]
After treatment with Compound 50, nuclear extract and cytoplasmic extract were prepared from 20×10^6 Raw264.7 cells by using Extraction kits from BD Biosciences (Cat. 631921), and above for experimental details. […] Densitometry analysis was performed using Quantity One software from BioRad.
The reduction in c-RelDNA-binding activity correlated with a 40-50% reduction in the levels of nuclear c-Rel as detected by immunoblot analysis (see immunoblot FIG. 14 and densitometry FIG. 15). […]

p65 = assay: Nuclear p65 in PMA+ionomycin stimulated Jurkat T cells (immunoblot); details: 100 nM
[3] = test system: purified mouse splenic (CD19+) B cells; assay: Primary mouse B cell survival, Annexin V/propidium iodide flow cytometry; details: 24 h; for viability at 0.0001 µM / viability at 0.001 µM / viability at 0.01 µM / viability at 0.1 µM / viability at 1 µM: Mus musculus, B-cell
Procedure: Therefore, the effect of Compound 50 on the activation and survival of homogeneous populations of primary B and T lymphocytes has been explored. As a first step in this process, we evaluated the effect of Compound 50 on the survival of purified mouse splenic (CD19^+) B cells. When cultured ex vivo, primary B cells undergo spontaneous apoptosis within 24-48 h in the absence of any survival signals. Examples of such stimuli include those mediated by anti-CD40 (or CD40L), BAFF, or B cell receptor signals provided by either anti-IgM or LPS. Murine primary B cells were isolated from mouse spleen using anti-CD19 coated magnetic beads (Miltenyi Biotec) according to the manufacturer's recommendations. Purified CD19^+ B cells were cultured at 100,000 cells/well in 96-well microtiter plates in culture medium (RPMI 1640 supplemented with 10% fetal bovine serum, 2 mM L-glutamine, 1 mM sodium pyruvate, 20 mM HEPES, and 55 μM β-mercaptoethanol) in the presence of 10 μg/ml anti-CD40, 5 μg/ml LPS or 100 ng/ml BAFF in the presence or absence of Compound 50 for 24 h and measured the frequency of viable and apoptotic cells using Annexin V/propidum iodide flow cytometric analysis. To perform this analysis, cells were washed with PBS and labeled with Annexin V-FITC and propidium iodide (BioVision) according to the manufacturer's instructions. Apoptotic cell (Annexin V-positive) and live cell (Annexin V-negative/propidium iodide-negative) percentages were determined using a flow cytometer.

T1 sequence (P15307 whole entry): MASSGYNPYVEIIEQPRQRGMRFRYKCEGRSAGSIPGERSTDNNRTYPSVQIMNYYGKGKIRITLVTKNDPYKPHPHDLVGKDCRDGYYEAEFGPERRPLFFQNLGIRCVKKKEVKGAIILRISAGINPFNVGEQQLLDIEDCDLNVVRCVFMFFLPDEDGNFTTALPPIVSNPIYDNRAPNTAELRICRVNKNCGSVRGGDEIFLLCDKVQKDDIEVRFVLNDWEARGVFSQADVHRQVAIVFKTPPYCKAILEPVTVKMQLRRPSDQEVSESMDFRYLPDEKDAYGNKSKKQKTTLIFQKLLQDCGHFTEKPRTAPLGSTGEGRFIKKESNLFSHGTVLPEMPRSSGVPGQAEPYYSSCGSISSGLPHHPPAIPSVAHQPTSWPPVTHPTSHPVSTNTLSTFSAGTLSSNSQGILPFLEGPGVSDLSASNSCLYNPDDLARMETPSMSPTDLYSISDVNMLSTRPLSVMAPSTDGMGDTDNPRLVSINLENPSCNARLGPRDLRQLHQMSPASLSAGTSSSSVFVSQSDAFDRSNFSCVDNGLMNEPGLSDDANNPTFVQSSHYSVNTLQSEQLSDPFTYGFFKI

For `Cc1cccc(/C=N/Nc2cc(N3CCOCC3)nc(OCCc3ccccn3)n2)c1` [Compound 50, N-(3-Methyl-benzylidene)-N′-[6-morpholin-4-yl-2-(2-pyridin-2-yl-ethoxy)-pyrimidin-4-yl]-hydrazine], the “reduction in the level of c-Rel DNA-binding activity” value (c-Rel [1]) was 40%, the “reduction in the levels of nuclear c-Rel” value (c-Rel [2]) was 40-50% and the “nuclear p65 levels” value (p65) was “unchanged”. The “% Apoptotic” value ([3]; Anti-CD40 (10 μg/ml), 0.1 nM) was 39%, the “% Apoptotic” value ([3]; Anti-CD40 (10 μg/ml), 1 nM) was 37% and the “% Apoptotic” value ([3]; Anti-CD40 (10 μg/ml), 10 nM) was 46%. The “% Apoptotic” value ([3]; Anti-CD40 (10 μg/ml), 100 nM) was 89%, the “% Apoptotic” value ([3]; Anti-CD40 (10 μg/ml), 1000 nM) was 90% and the “% Apoptotic” value ([3]; BAFF (100 ng/ml), 0.1 nM) was 40%. The “% Apoptotic” value ([3]; BAFF (100 ng/ml), 1 nM) was 43%, the “% Apoptotic” value ([3]; BAFF (100 ng/ml), 10 nM) was 52% and the “% Apoptotic” value ([3]; BAFF (100 ng/ml), 100 nM) was 92%. The “% Apoptotic” value ([3]; BAFF (100 ng/ml), 1000 nM) was 93%, the “% Apoptotic” value ([3]; LPS (5 μg/ml), 0.1 nM) was 31% and the “% Apoptotic” value ([3]; LPS (5 μg/ml), 1 nM) was 32%. The “% Apoptotic” value ([3]; LPS (5 μg/ml), 10 nM) was 44%, the “% Apoptotic” value ([3]; LPS (5 μg/ml), 100 nM) was 79% and the “% Apoptotic” value ([3]; LPS (5 μg/ml), 1000 nM) was 79%. The viability at 0.0001 µM ([3]; Anti-CD40 (10 μg/ml), 0.1 nM) was 55%, the viability at 0.001 µM ([3]; Anti-CD40 (10 μg/ml), 1 nM) was 51% and the viability at 0.01 µM ([3]; Anti-CD40 (10 μg/ml), 10 nM) was 48%. For the same compound, the viability at 0.1 µM ([3]; Anti-CD40 (10 μg/ml), 100 nM) was 5%, the viability at 1 µM ([3]; Anti-CD40 (10 μg/ml), 1000 nM) was 3% and the viability at 0.0001 µM ([3]; BAFF (100 ng/ml), 0.1 nM) was 55%. It also gave a viability at 0.001 µM ([3]; BAFF (100 ng/ml), 1 nM) of 52%, a viability at 0.01 µM ([3]; BAFF (100 ng/ml), 10 nM) of 43% and a viability at 0.1 µM ([3]; BAFF (100 ng/ml), 100 nM) of 4%. For the same compound, the viability at 1 µM ([3]; BAFF (100 ng/ml), 1000 nM) was 3%, the viability at 0.0001 µM ([3]; LPS (5 μg/ml), 0.1 nM) was 63% and the viability at 0.001 µM ([3]; LPS (5 μg/ml), 1 nM) was 63%. For the same compound, the viability at 0.01 µM ([3]; LPS (5 μg/ml), 10 nM) was 51%, the viability at 0.1 µM ([3]; LPS (5 μg/ml), 100 nM) was 15% and the viability at 1 µM ([3]; LPS (5 μg/ml), 1000 nM) was 13%. The B cells apoptotic ([3]; concentrations 100 nM, with anti-CD40, LPS or BAFF) was 80-90%.
